Experimental data published in patent EP2257297B1, “COMPOUNDS FOR USE IN THE TREATMENT OF ACNE, SEBORRHOEA AND SEBHORROEIC DERMATITIS, OR FOR REDUCING SEBUM SECRETION” (priority 2008, dated 2009).

target: human MC4R; test: Human MC4R radioligand binding assay ([125I] NDP-MSH); settings: Table 6, hMCR binding selectivity
Description: (§1) Radioligand binding assays were carried out using commercial or in-house prepared hMC1 R, hMC3R and hMC4R membranes and [^125I]
(§2) In-house plasma membranes were prepared from transfected mammalian cells (prepared as in Example 109, using plasmid DNA containing the human MC1 R, MC3R or MC4R gene or other gene of interest in a plasmid vector with a mammalian origin of replication): • Adherent cells were washed with warm Hanks buffered saline solution (HBSS). 1 mL of cold HBSS was added to each flask and the cells were scraped off with a rubber policeman. The scraped cells were added to a 50 mL tube on ice. The plates were then rinsed twice with 5 mL cold HBSS and this was also added to the tube. The cells were centrifuged at 1000 x g for 5 mins in a bench top centrifuge and the supernatant was decanted. The remaining cell pellet was resuspended in 0.25 M sucrose. The cell suspension was centrifuged again as previously and the pellet resuspended in 5 mL of 0.25 M sucrose containing protease inhibitors. The cells were homogenised by a 10 second pulse with an Ika disperser followed by 30 seconds on ice. The homogenisation and ice incubation was repeated three times. The mixture was then centrifuged at 1260 x g for 5 mins. […]

First: O=C(/C=C/c1ccc(Cl)cc1)NC[C@@H]1CCN(CC(c2ccccc2)c2ccccc2)C(=O)[C@H](CCN2CCCCC2)N1 [Compound 33, (E)-3-(4-chlorophenyl)-N-(((3S,5S)-1-(2,2-diphenylethyl)-2-oxo-3-(2-(piperidin-1-yl)ethyl)-1,4-diazepan-5-yl)methyl)acrylamide]
Second: N=C(N)NCCC[C@@H]1N[C@H](CNC(=O)c2ccc3ccccc3c2)CCN(CC(c2ccccc2)c2ccccc2)C1=O [Compound 105, N-(((3S,5S)-1-(2,2-diphenylethyl)-3-(3-guanidinopropyl)-2-oxo-1,4-diazepan-5-yl)methyl)-2-naphthamide]
The IC50 of the first is 1.8-fold higher: 6060 nM for the first, 3280 nM for the second. The second is the more potent here.

target: human MC3R; test: Human MC3R radioligand binding assay ([125I] NDP-MSH); settings: Table 6, hMCR binding selectivity
Description: as §1, §2

`O=C(/C=C/c1ccc(Cl)cc1)NC[C@@H]1CCN(CC(c2ccccc2)c2ccccc2)C(=O)[C@H](CCN2CCCCC2)N1` [Compound 33, (E)-3-(4-chlorophenyl)-N-(((3S,5S)-1-(2,2-diphenylethyl)-2-oxo-3-(2-(piperidin-1-yl)ethyl)-1,4-diazepan-5-yl)methyl)acrylamide] and `CCC(CC)CN1CC[C@@H](CNC(=O)/C=C/c2ccc(Cl)cc2)N[C@@H](CCN2CCCCC2)C1=O` [Compound 348, (E)-3-(4-chlorophenyl)-N-(((3S,5S)-1-(2-ethylbutyl)-2-oxo-3-(2-(piperidin-1-yl)ethyl)-1,4-diazepan-5-yl)methyl)acrylamide] are within 1.5-fold of each other in IC50: 1500 nM for the first, 1830 nM for the second.

target: human MC1R; test: Human MC1R radioligand binding assay ([125I] NDP-MSH); settings: Table 6, hMCR binding selectivity
Description: as §1, §2

Going from `O=C(/C=C/c1ccc(Cl)cc1)NC[C@@H]1CCN(CC(c2ccccc2)c2ccccc2)C(=O)[C@H](CCN2CCCCC2)N1` [Compound 33, (E)-3-(4-chlorophenyl)-N-(((3S,5S)-1-(2,2-diphenylethyl)-2-oxo-3-(2-(piperidin-1-yl)ethyl)-1,4-diazepan-5-yl)methyl)acrylamide] to `N=C(N)NCCC[C@@H]1N[C@H](CNC(=O)c2ccc3ccccc3c2)CCN(CC(c2ccccc2)c2ccccc2)C1=O` [Compound 105, N-(((3S,5S)-1-(2,2-diphenylethyl)-3-(3-guanidinopropyl)-2-oxo-1,4-diazepan-5-yl)methyl)-2-naphthamide], the IC50 rises from 2850 nM to 6660 nM (2.3-fold). The first is the more potent here.

target: T1, human MC5R (Homo sapiens, UniProt P33032); test: Human MC5R radioligand binding assay ([125I] NDP-MSH displacement, hMC5R membranes); settings: hMC5R assay as in Example 102; compounds tested as trifluoroacetate or hydrochloride salts, or as free base
T1 construct: purchased Perkin Elmer RBXMC5M400UA
Summary of the method: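 Bound ligand collected by filtration on PEI-soaked GF/A filters and counted. Data fitted to a single-site competition model with fixed Hill coefficient to give EC50.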

T1 sequence (P33032 whole entry): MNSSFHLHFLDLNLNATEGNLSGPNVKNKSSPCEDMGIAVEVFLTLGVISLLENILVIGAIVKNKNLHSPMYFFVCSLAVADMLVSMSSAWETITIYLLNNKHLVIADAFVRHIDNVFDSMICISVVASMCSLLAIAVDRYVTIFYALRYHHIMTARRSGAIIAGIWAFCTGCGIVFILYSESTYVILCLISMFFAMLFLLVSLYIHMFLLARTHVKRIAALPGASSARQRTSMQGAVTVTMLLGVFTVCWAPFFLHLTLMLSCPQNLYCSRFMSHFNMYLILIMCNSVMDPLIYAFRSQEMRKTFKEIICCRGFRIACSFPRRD

`NC[C@@H]1N[C@H](CNC(=O)c2ccc(Cl)c(Cl)c2)CCN(Cc2cc(Cl)cc(Cl)c2)C1=O` [Compound 364, N-(((3S,5S)-3-(aminomethyl)-1-(3,5-dichlorobenzyl)-2-oxo-1,4-diazepan-5-yl)methyl)-3,4-dichlorobenzamide] and `O=C(NC[C@@H]1CCN(Cc2cc(Cl)cc(Cl)c2)C(=O)[C@H](CN2CCCC2)N1)c1ccc(Cl)c(Cl)c1` [Compound 371, 3,4-dichloro-N-(((3S,5S)-1-(3,5-dichlorobenzyl)-2-oxo-3-(pyrrolidin-1-ylmethyl)-1,4-diazepan-5-yl)methyl)benzamide] cannot be ordered by IC50: < 1000 nM for the first, < 1000 nM for the second.

`NC[C@@H]1N[C@H](CNC(=O)c2ccc3ccccc3c2)CCN(Cc2cc(Cl)cc(Cl)c2)C1=O` [Compound 365, N-(((3S,5S)-3-(aminomethyl)-1-(3,5-dichlorobenzyl)-2-oxo-1,4-diazepan-5-yl)methyl)-2-naphthamide] and `O=C(NC[C@@H]1CCN(Cc2cc(Cl)cc(Cl)c2)C(=O)[C@H](CN2CCCC2)N1)c1ccc2ccccc2c1` [Compound 372, N-(((3S,5S)-1-(3,5-dichlorobenzyl)-2-oxo-3-(pyrrolidin-1-ylmethyl)-1,4-diazepan-5-yl)methyl)-2-naphthamide] cannot be ordered by IC50: < 1000 nM for the first, < 1000 nM for the second.

`O=C(NC[C@@H]1CCN(Cc2cc(Cl)cc(Cl)c2)C(=O)[C@H](CN2CCCCC2)N1)c1ccc(Cl)c(Cl)c1` [Compound 367, 3,4-dichloro-N-(((3S,5S)-1-(3,5-dichlorobenzyl)-2-oxo-3-(piperidin-1-ylmethyl)-1,4-diazepan-5-yl)methyl)benzamide] and `O=C(/C=C/c1ccc(Cl)cc1)NC[C@@H]1CCN(Cc2cc(Cl)cc(Cl)c2)C(=O)[C@H](CN2CCCCC2)N1` [Compound 368, (E)-3-(4-chlorophenyl)-N-(((3S,5S)-1-(3,5-dichlorobenzyl)-2-oxo-3-(piperidin-1-ylmethyl)-1,4-diazepan-5-yl)methyl)acrylamide] cannot be ordered by IC50: < 1000 nM for the first, < 100 nM for the second.

`CCC(CN1CC[C@@H](CNC(=O)c2ccc(Cl)c(Cl)c2)N[C@@H](CCN)C1=O)c1ccccc1` (stereo partly drawn) [Compound 369, N-(((3S,5S)-3-(2-aminoethyl)-2-oxo-1-(2-phenylbutyl)-1,4-diazepan-5-yl)methyl)-3,4-dichlorobenzamide] and `CCC(CN1CCC(CNC(=O)c2ccc3cc(Cl)ccc3c2)N[C@@H](C2CCNCC2)C1=O)c1ccccc1` (stereo partly drawn) [Compound 472, (S)-6-chloro-N-((2-oxo-1-(2-phenylbutyl)-3-(piperidin-4-yl)-1,4-diazepan-5-yl)methyl)-2-naphthamide] cannot be ordered by IC50: < 1000 nM for the first, < 100 nM for the second.

`CCN(CC)CC[C@@H]1N[C@H](CNC(=O)/C=C/c2ccc(Cl)cc2)CCN(CC(c2ccccc2)c2ccccc2)C1=O` [Compound 378, (E)-3-(4-chlorophenyl)-N-(((3S,5S)-3-(2-(diethylamino)ethyl)-1-(2,2-diphenylethyl)-2-oxo-1,4-diazepan-5-yl)methyl)acrylamide] and `CCC(CN1CCC(CNC(=O)c2ccc3cc(Cl)ccc3c2)N[C@@H](C2CCN(CCC(C)C)CC2)C1=O)c1ccccc1` (stereo partly shown) [Compound 473] cannot be ordered by IC50: < 100 nM for the first, < 100 nM for the second.

same assay, conditions: hMC5R binding assay as in Example 102; compounds tested as trifluoroacetate or hydrochloride salts, or as free base

`CC[C@H](CN1CC[C@H](CNC(=O)c2ccc3cc(Cl)ccc3c2)N[C@H](CC(C)(C)N)C1=O)c1ccccc1` [Compound 494, N-(((3R,5R)-3-(2-amino-2-methylpropyl)-2-oxo-1-((S)-2-phenylbutyl)-1,4-diazepan-5-yl)methyl)-6-chloro-2-naphthamide] and `CC[C@H](CN1CC[C@@H](CNC(=O)c2ccc3cc(Cl)ccc3c2)N[C@@H](CCN2CCCCC2)C1=O)c1ccccc1` [Compound 569, 6-chloro-N-(([5-^13C,4-^15N](3S,5S)-2-oxo-1-((S)-2-phenylbutyl)-3-(2-(piperidin-1-yl)ethyl)-1,4-diazepan-5-yl)[^13C]methyl)-2-naphthamide] cannot be ordered by IC50: < 10000 nM for the first, < 10 nM for the second.

`CC[C@@H](CN1CC[C@H](CNC(=O)c2ccc3cc(Cl)ccc3c2)N[C@H](CCN2CCCCC2)C1=O)c1ccccc1` [Compound 580, 6-chloro-N-(((3R,5R)-2-oxo-1-((R)-2-phenylbutyl)-3-(2-(piperidin-1-yl)ethyl)-1,4-diazepan-5-yl)methyl)-2-naphthamide] and `CC[C@H](CN1CC[C@H](CNC(=O)c2ccc3cc(Cl)ccc3c2)N[C@@H](CCN2CCCCC2)C1=O)c1ccccc1` [Compound 581, 6-chloro-N-(((3S,5R)-2-oxo-1-((S)-2-phenylbutyl)-3-(2-(piperidin-1-yl)ethyl)-1,4-diazepan-5-yl)methyl)-2-naphthamide] cannot be ordered by IC50: < 1000 nM for the first, < 100 nM for the second.

`CC[C@@H](CN1CC[C@H](CNC(=O)c2ccc3cc(Cl)ccc3c2)N[C@@H](CCN2CCCCC2)C1=O)c1ccccc1` [Compound 583, 6-chloro-N-(((3S,5R)-2-oxo-1-((R)-2-phenylbutyl)-3-(2-(piperidin-1-yl)ethyl)-1,4-diazepan-5-yl)methyl)-2-naphthamide] and `CC[C@H](CN1CC[C@H](CNC(=O)c2ccc3cc(Cl)ccc3c2)N[C@H](CCN2CCCCC2)C1=O)c1ccccc1` [Compound 585, 6-chloro-N-(((3R,5R)-2-oxo-1-((S)-2-phenylbutyl)-3-(2-(piperidin-1-yl)ethyl)-1,4-diazepan-5-yl)methyl)-2-naphthamide] cannot be ordered by IC50: < 1000 nM for the first, < 10000 nM for the second.
